Measurements from patent US8796249B2, “TGR5 modulators and methods of use thereof” (Intercept Pharmaceuticals, Inc., priority 2008, dated 2014).
Where a name gives a salt, the structure may show the parent alone.

What was measured:
[1] = Critical micellar concentration by surface tension (maximum bubble-pressure method); format: physicochemical
Protocol: The critical micellar concentration (CMC) was determined by surface tension (ST) measurements using a maximum bubble-pressure method which give surface tension values slightly affected by potential impurities like static methods are. The tensiometer was a […] Research Corp., Milwaukee, Wis.) equipped with two glass probes of 0.5 and 4.0 mm diameters connected to a source of nitrogen. The bubble frequency was 1 bubble/second in distilled water at 26° C. (P=2.7 atm) and the calibration was made with double-distilled water and methanol. The surface tension of BA sodium salts solutions in NaCl 0.15 M was measured at various concentrations inside the 0.13-50 mM range. The surface tension values were plotted against the logarithm of the bile salt concentration; the regression lines corresponding to the two parts of the curve (monomeric and micellar phases) were calculated using the method of least squares, and the intersection of the lines was taken as the CMC value. From the ST vs concentration curves the value of the surface tension at the CMC (equilibrium between monomers and multimers species) was also calculated giving information about the detergency power which is related to the size of the micelles with associate surface tension lowering capacity. The CMC was evaluated by surface tension measurements in non equilibrium conditions i.e. in conditions that impurities slightly affect the surface tension results (FIG. 1).

CAR = molecular target: T1, CAR (Homo sapiens, UniProt Q14994); assay: CAR coactivator recruitment (Lanthascreen); format: biochemical
T1 sequence (Q14994 1-352): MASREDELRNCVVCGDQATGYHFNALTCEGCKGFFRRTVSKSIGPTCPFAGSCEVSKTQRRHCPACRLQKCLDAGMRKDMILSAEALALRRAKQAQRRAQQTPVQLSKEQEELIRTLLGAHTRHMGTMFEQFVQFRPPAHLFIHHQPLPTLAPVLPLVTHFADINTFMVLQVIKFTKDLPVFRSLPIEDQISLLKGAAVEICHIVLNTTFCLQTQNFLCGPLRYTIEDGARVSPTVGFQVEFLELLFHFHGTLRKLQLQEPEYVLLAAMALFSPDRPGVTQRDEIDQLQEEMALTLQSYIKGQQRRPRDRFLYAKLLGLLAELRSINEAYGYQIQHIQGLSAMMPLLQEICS
Protocol: The selectivity of compounds of the invention was evaluated using assay methods known in the art. Specifically, the following assay methods were used: • FXR and LXR: Coactivator Recruitment (alphascreen); • TGR5: cAMP level on human intestinal cell line (NCI-H716); • PXR: Ligands Competition assay (Binding Assay) • CAR: Coactivator Recruitment (Lanthascreen)

pancreatic esterases = assay: In vitro metabolic stability in simulated duodenal/pancreatic fluid; format: in vitro ADME, porcine
Protocol: This study has been performed for 2A since it contains an ester bond in the side chain and the aim was to verify the stability in presence of esterase enzymes like present in duodenal and pancreatic juice. Simulated pancreatic fluid was prepared by dissolving 10 g/L Pancreatin (Sigma P8096: pancreatin from porcine pancreas, activity 1× USP specifications) in 0.05M phosphate buffer, pH=7.2±0.1. Then, 4-mL aliquots of the simulated pancreatic fluid were added of […] of the studied BA and incubated for different times (0, 30, 60, 90, 120, 180 and 240 min) at 37° C. After incubation, a 2-mL aliquot of each solution was added with 2 mL of 0.1M NaOH and subjected to bile acids extraction by SPE and analysis by thin-layer chromatography and mass spectrometry as described above. […] Olive oil was used as a reference as reported in the USP protocol.

Compound	surface tension lowering capacity ([1]; NaCl […])	CMC […] Na+ ([1]; […] NaCl water solution) [mM]	STCMC (surface tension at CMC) ([1]; […] NaCl water solution) [Dyne/cm]	EC50 (CAR) [µM]	metabolic stability in simulated pancreatic fluid (pancreatic esterases; 10 g/L pancreatin, pH 7.2, 37° C., up to 240 min)	hydrolysis of ester bond (sulphate) by pancreatic esterases (pancreatic esterases; simulated pancreatic fluid)
CC[C@H]1[C@@H](O)[C@@H]2[C@H](C[C@H](O)[C@]3(C)[C@@H]([C@H](C)CCCS(=O)(=O)[O-])CC[C@@H]23)[C@@]2(C)CC[C@@H](O)C[C@@H]12.[Na+] [Compound 3A, 3α,7α,12α-trihydroxy-6α-ethyl-5β-cholan-24-sulfonate Sodium Salt]	high surface tension lowering capacity	2.8	43.4	> 250	–	–
CCC1C(O)C2C3CCC(C(C)CC(C)OS(=O)(=O)O)C3(C)CCC2C2(C)CCC(O)CC12 [Compound 2A, 3α,7α,23-trihydroxy-6α-ethyl-23(S)-methyl-24-nor-5β-cholan-23-sulfate Sodium Salt]	–	–	–	84	very stable	not hydrolyzed
